Test results: ChEMBL document CHEMBL3102731, “Structure-activity relationship studies and biological characterization of human NAD(+)-dependent 15-hydroxyprostaglandin dehydrogenase inhibitors” (Bioorg Med Chem Lett, 2014); call rule not given here

Legend:
A549 [1] = experiment: Induction of PGE2 production in human A549 cells assessed as concentration required for half-maximal activation after 4 to 20 hrs by HTRF assay; type: functional, cell-based
[2] = Kinetic solubility of the compound in PBS buffer at pH 7.4; type: physicochemical
Liver microsome = experiment: Half life in rat liver microsomes in presence of NADPH; type: ADME
LNCaP [3] = experiment: Induction of PGE2 production in human LNCAP cells at 41.9 nM to 100 uM after 16 hrs by HTRF assay relative to control; type: functional
A549 [4] = experiment: Induction of PGE2 production in human A549 cells at 775 pM to 45.8 uM after 4 to 20 hrs by HTRF assay relative to control; type: functional
[5] = target: T1, 15-hydroxyprostaglandin dehydrogenase [NAD(+)] (Homo sapiens, UniProt P15428); experiment: Inhibition of human HPGD using PGE2 as substrate after 15 mins by fluorescence assay
T1 sequence (P15428 whole entry): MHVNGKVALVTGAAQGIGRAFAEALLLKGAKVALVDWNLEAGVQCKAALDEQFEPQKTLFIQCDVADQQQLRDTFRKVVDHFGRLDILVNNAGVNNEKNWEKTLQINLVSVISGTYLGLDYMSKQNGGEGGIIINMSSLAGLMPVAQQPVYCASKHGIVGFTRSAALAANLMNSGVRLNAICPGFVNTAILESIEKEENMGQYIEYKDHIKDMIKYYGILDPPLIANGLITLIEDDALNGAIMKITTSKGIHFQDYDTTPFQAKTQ

[6] = Passive permeability of the compound at pH 7.4 by PAMPA; type: ADME
[7] = target: L-lactate dehydrogenase A chain (Homo sapiens, UniProt P00338); experiment: Inhibition of LDHA (unknown origin) using sodium pyruvate as substrate at 0.46 to 57.5 uM after 15 mins by fluorescence assay
[8] = target: T2, Peroxisomal multifunctional enzyme type 2 (Homo sapiens, UniProt P51659); experiment: Inhibition of HSD17beta4 (unknown origin) using NAD+/estradiol as substrate at 324 pM to 57.2 uM after 15 mins by UV-fluorescence assay
T2 sequence (P51659 whole entry): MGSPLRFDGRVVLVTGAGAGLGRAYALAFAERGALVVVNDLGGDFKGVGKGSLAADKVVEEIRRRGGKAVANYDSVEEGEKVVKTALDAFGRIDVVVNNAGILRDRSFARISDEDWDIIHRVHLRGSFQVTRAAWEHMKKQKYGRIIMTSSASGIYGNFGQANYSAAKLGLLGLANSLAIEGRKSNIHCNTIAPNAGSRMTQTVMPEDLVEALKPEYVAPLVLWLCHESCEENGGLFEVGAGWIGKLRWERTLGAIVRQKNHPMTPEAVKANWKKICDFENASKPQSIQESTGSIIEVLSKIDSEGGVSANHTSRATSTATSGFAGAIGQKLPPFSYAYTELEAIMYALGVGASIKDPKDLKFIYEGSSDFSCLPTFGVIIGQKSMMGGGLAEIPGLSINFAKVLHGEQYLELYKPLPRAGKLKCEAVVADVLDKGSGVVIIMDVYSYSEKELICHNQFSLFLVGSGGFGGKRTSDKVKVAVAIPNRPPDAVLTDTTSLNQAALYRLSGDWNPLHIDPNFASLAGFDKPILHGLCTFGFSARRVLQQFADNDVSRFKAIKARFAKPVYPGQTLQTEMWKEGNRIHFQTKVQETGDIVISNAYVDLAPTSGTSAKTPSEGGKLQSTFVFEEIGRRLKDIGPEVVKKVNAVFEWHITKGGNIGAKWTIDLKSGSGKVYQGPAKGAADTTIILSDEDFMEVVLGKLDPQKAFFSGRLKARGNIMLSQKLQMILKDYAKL

[9] = target: L-lactate dehydrogenase B chain (Homo sapiens, UniProt P07195); experiment: Inhibition of LDHB (unknown origin) using sodium pyruvate as substrate at 0.46 to 57.5 uM after 15 mins by fluorescence assay
L-lactate dehydrogenase B chain, sequence (P07195 whole entry): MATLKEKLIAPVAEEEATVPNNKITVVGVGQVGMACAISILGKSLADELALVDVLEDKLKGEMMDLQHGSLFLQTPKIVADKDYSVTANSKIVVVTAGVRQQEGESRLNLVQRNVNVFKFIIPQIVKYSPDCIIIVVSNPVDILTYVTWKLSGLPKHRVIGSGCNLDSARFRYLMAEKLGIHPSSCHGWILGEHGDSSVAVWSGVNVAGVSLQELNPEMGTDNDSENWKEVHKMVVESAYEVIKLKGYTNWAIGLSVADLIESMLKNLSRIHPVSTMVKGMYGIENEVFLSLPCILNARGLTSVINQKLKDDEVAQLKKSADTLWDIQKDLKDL

LNCaP [10] = experiment: Induction of PGE2 production in human LNCAP cells assessed as half-maximal activation concentration after 16 hrs by HTRF assay; type: functional, cell-based
[11] = target: Glyceraldehyde-3-phosphate dehydrogenase (Oryctolagus cuniculus, UniProt P46406); experiment: Inhibition of rabbit muscle GAPDH using glyceraldehyde-3-phosphate as substrate at 324 pM to 57.2 uM by fluorescence assay
Glyceraldehyde-3-phosphate dehydrogenase, sequence (P46406 whole entry): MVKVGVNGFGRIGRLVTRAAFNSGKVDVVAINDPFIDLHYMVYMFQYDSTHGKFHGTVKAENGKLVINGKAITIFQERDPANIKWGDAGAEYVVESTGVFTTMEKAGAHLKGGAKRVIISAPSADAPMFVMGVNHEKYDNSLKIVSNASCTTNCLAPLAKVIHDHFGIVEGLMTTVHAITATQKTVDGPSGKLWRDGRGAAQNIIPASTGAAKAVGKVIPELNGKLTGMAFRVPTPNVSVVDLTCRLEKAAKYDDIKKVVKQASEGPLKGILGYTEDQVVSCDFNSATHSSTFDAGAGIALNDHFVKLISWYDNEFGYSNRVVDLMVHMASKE

[12] = target: T3, Aldehyde dehydrogenase 1A1 (Homo sapiens, UniProt P00352); experiment: Inhibition of ALDH1A1 (unknown origin) using NAD+/propionaldehyde as substrate after 15 mins by UV-fluorescence assay
T3 sequence (P00352 whole entry): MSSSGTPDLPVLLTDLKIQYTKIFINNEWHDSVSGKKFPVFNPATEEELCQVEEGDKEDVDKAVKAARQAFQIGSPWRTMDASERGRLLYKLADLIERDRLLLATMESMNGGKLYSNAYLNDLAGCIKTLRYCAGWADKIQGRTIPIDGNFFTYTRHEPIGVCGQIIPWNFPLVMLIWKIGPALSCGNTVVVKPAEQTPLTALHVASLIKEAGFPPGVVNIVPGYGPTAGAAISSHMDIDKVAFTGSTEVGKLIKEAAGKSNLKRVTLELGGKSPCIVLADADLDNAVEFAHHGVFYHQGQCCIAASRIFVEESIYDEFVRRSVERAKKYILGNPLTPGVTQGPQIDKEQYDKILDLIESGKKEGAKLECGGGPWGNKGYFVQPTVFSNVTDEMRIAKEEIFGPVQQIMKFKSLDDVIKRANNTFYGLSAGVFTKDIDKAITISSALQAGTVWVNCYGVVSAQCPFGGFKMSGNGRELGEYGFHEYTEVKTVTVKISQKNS

## Cc1cc(-c2nnc3n2CCCCC3)c(C)n1-c1ccc(Cl)c(Cl)c1
A549 [1]
  AC50: 296 nM
[2]
  Kinetic_solubility: 32 µM
Liver microsome
  t1/2: 1.9 min
LNCaP [3]
  Activity: 105%
A549 [4]
  Activity: 110%
[5]
  IC50: 22 nM
[6]
  permeability: 1650 ×10⁻⁶ cm/s
[7]
  IC50: Not Active
[8]
  IC50: Not Active
[9]
  IC50: Not Active
LNCaP [10]
  AC50: 352 nM
[11]
  IC50: Not Active
[12]
  IC50: 607 nM

## Cc1cc(-c2nnc3n2CCCCC3)c(C)n1-c1cccc(Cl)c1
A549 [1]
  AC50: 590 nM
[2]
  Kinetic_solubility: 37 µM
Liver microsome
  t1/2: 2 min
LNCaP [3]
  Activity: 68%
A549 [4]
  Activity: 114%
[5]
  IC50: 34 nM
[6]
  permeability: 1100 ×10⁻⁶ cm/s
[7]
  IC50: Not Active
[8]
  IC50: Not Active
[9]
  IC50: Not Active
LNCaP [10]
  AC50: 558 nM
[11]
  IC50: Not Active
[12]
  IC50: 4820 nM

## Cc1cc(-c2nnc3n2CCCCC3)c(C)n1-c1cccc(C(F)(F)F)c1
A549 [1]
  AC50: 2090 nM
[2]
  Kinetic_solubility: 33 µM
Liver microsome
  t1/2: 1.9 min
LNCaP [3]
  Activity: 44%
A549 [4]
  Activity: 145%
[5]
  IC50: 48 nM
[6]
  permeability: 1510 ×10⁻⁶ cm/s
[7]
  IC50: Not Active
[8]
  IC50: Not Active
[9]
  IC50: Not Active
LNCaP [10]
  AC50: 2220 nM
[11]
  IC50: Not Active
[12]
  IC50: 1520 nM

## Cc1ccc(-n2c(C)cc(-c3nnc4n3CCCCC4)c2C)cc1
A549 [1]
  AC50: 166 nM
[2]
  Kinetic_solubility: 28 µM
Liver microsome
  t1/2: 1.8 min
LNCaP [3]
  Activity: 71%
A549 [4]
  Activity: 107%
[5]
  IC50: 34 nM
[6]
  permeability: 1330 ×10⁻⁶ cm/s
[7]
  IC50: Not Active
[8]
  IC50: Not Active
[9]
  IC50: Not Active
LNCaP [10]
  AC50: 703 nM
[11]
  IC50: Not Active
[12]
  IC50: 2410 nM
